The values that follow come from patent US20250387388A1, “COMPOUND AS TRK INHIBITOR AND/OR RET INHIBITOR AND USE THEREOF” (Medinno Pharmaceutical Technology (Zhuhai) Co., Ltd., priority 2022, published 2025).

Read-outs that look alike come from different tables or passages of the source.

The subject of assay [1] is ovalbumin-induced asthma model in mice. Put plainly: Ovalbumin-induced asthma model in mice. The settings on record: vs. vehicle (model) group; nasal administration BID 5 days: MDI-1228 3 mg/kg, MDI-1288 3 mg/kg, MDI-1233 1, 3, 10 mg/kg; dexamethasone 1 mg/kg gavage QD. It counts as in vivo, Balb/c mice. As to the method: After 7 days of acclimatization, animals were randomly grouped based on their body weight. The experiment was divided into 8 groups, with 8 mice in each group, as detailed in the table below.
• Preparation of Immunogen: Weigh an appropriate amount of OVA, to which an appropriate amount of PBS was added, to achieve a final concentration of 0.1 mg/ml. Then, an equal volume of aluminum adjuvant was added, and the resulting mixture was mixed well, and stored at 4° C., which was prepared before use. • Preparation of Sensitizer (5% OVA): Weigh an appropriate amount of OVA, to which an appropriate amount of PBS was added, to achieve a final concentration of 5%. The resulting mixture was mixed well, and store it at 4° C. for later use, which was prepared before use. • Preparation of Vehicle: Add 200 μl of Tween 80 to 100 ml of saline, and mix it well. […] Mix it well, and store it at 4° C. for later use. […] Mix it well, and store it at 4° C. for later use. […] Mix it well, and store it at 4° C. for later use. The solution was prepared once every three days.
• Immunization: On days 0, 7, 14, and 21, 200 μl of PBS was injected intraperitoneally for the first group, and 200 μl of (10 μg) OVA/aluminum adjuvant emulsion was injected intraperitoneally for groups 2-8. • Sensitization: From days 28 to 32, the first group of animals was exposed to nebulized PBS in a nebulization box for 20 minutes, and the groups 2-8 were exposed to nebulized 5% OVA in a nebulization box for 20 minutes. And then, they were removed. The sensitization was conducted at 12:30 PM daily. • Administration: The medicine was administrated twice a day at 9 AM and 5 PM via nasal drops. Dexamethasone (Dex) was administered by gavage once a day at 9 AM.
Serum IgE: Blood was collected from the orbits of animals after carbon dioxide euthanasia, and plasma was separated and stored at −40 degrees for plasma IgE detection.
Bronchoalveolar Lavage Fluid (BALF) Cell Count: An appropriate amount of foetal bovine serum was weighted and dissolved in PBS to a final concentration of 1%. After orbital blood collection, the trachea was exposed, and a 1 ml syringe needle was replaced with a mouse gavage needle. 0.8 ml of the lavage fluid was aspirated from the syringe and the lungs were lavaged three times. The lavage fluids were collected, and centrifuged at 1000 rpm for 10 minutes, and the supernatant was collected and stored at −40 degrees Celsius. Cells were resuspended with 1 ml of PBS and counted. 100 ul of centrifuged smear was taken and stained with Diff quick and the number of eosinophils, basophils, lymphocytes and macrophages were recorded.
Bronchoalveolar Lavage Fluid IL-5: Bronchoalveolar lavage fluid was collected to detect IL-5.
Pathological scoring criteria were: • A) 0 points: No lymphocyte infiltration; • B) 1 point: Trace lymphocyte infiltration; • C) 2 points: Mild lymphocyte infiltration; • D) 3 points: Moderate lymphocyte infiltration; • E) 4 points: Severe lymphocyte infiltration; • After scoring, the results were calculated and analyzed.

The target in assay [2] is TRKA (Homo sapiens (Human), UniProt P04629). Put plainly: Inhibitory activity on TRKA (ADP-Glo Kinase Assay). A general note: ADP-Glo turns the ADP formed in a reaction into a luminescent signal.
Assay [3] deals with TRKB (Homo sapiens (Human), UniProt Q16620). Put plainly: Inhibitory activity on TRKB (ADP-Glo Kinase Assay).
Assay [4] has as its target TRKC (Homo sapiens (Human), UniProt Q16288). Kind of assay: Inhibitory activity on TRKC (ADP-Glo Kinase Assay).
Assay [5] deals with imiquimod-induced psoriasis model. Kind of assay: Imiquimod-induced psoriasis model in mice. The settings on record: for Clinical Score (mean ± standard error) / Skin Thickness Score (mean ± standard error): Calcitriol 75 mg/mice topical QD.
Assay [6] deals with acne model in rabbits. Put plainly: Acne model in rabbits (coal tar + Propionibacterium acnes). The settings on record: 1% Clindamycin gel 0.5 g/kg once per day. Format: in vivo, New Zealand white rabbits. On the procedure: Modeling: Rabbits were acclimated for 7 days. On the right inner ear canal exit of the rabbits, a 2 cm×2 cm area was treated with 2% coal tar solution once a day, 0.5-1 mL each time, for 26 consecutive days. […] On the 8th day, Propionibacterium acnes was injected intradermally at 3-4 sites on the rabbit ears, 50 μl per rabbit, injected every other day for a total of 5 times. Treatment was started randomly on the 9th day after the last injection.
Rabbits were treated according to their groups. The blank group received no treatment. […] The model group received an equal amount of vehicle treatment, with the same application method and duration as the test drug groups.
Twenty-four hours after the last administration, a 2.8 cm punch was used to prepare ear samples at the application site, and their weight was measured. The ears from the modeling site were fixed with 4% paraformaldehyde, and consecutive sections (3 slices) were taken from the same location for HE staining and histopathological analysis. At the same time, the area of 3 hair follicles and the diameter of 3 sebaceous glands were measured to calculate the average values. Blood was drawn from the heart and centrifuged to obtain serum, and the levels of interleukin-1α (IL-1α), interleukin-6 (IL-6), and dihydrotestosterone (DHT) in serum were determined according to the ELISA kit instructions.
Tissue samples from animal ears were excised, fixed in 4% paraformaldehyde, dehydrated, embedded in paraffin, and sectioned and HE stained for observation of histopathological morphology changes. The tissue samples were fixed in 4% paraformaldehyde at normal temperature and the taken ears tissue was rinsed with running water for several hours, dehydrated through a series of ethanol solutions (70%, 80%, 90%), and then treated with a mixture of pure alcohol and xylene for 15 minutes, followed by xylene I for 15 minutes and xylene II for 15 minutes (until transparent). The tissue was then placed in a mixture of xylene and paraffin at a volume ratio of 1:1 for 15 minutes, followed by immersion with paraffin I and paraffin II each for 50-60 minutes. The tissue was embedded in paraffin and sectioned, and the sections were baked, dewaxed and hydrated in distilled water. The resulting sections were then stained in hematoxylin solution for 3 minutes, differentiated in a hydrochloric acid alcohol solution for 15 seconds, slightly washed, blued in a return blue solution for 15 seconds, rinsed with running water, stained with eosin for 3 minutes, rinsed with running water, dehydrated, cleared, and mounted for microscopic examination.
A double-antibody one-step sandwich Enzyme-linked Immunosorbent Assay (ELISA) ket was used. A capture antibody for the mouse target indicators was pre-coated onto microplate wells, to which samples, standards, and HRP-labeled detection antibodies were added sequentially, followed by incubation and thorough washing. TMB substrate was added for color development, which turned into blue in the presence of peroxidase and then into yellow after acidification. The depth of color was positively correlated with the concentration of the target in the samples. The absorbance (OD450 value) was measured at a wavelength of 450 nm using the microplate reader, and the sample concentration was calculated.

TRKA, sequence (P04629 33-796 limits assumed): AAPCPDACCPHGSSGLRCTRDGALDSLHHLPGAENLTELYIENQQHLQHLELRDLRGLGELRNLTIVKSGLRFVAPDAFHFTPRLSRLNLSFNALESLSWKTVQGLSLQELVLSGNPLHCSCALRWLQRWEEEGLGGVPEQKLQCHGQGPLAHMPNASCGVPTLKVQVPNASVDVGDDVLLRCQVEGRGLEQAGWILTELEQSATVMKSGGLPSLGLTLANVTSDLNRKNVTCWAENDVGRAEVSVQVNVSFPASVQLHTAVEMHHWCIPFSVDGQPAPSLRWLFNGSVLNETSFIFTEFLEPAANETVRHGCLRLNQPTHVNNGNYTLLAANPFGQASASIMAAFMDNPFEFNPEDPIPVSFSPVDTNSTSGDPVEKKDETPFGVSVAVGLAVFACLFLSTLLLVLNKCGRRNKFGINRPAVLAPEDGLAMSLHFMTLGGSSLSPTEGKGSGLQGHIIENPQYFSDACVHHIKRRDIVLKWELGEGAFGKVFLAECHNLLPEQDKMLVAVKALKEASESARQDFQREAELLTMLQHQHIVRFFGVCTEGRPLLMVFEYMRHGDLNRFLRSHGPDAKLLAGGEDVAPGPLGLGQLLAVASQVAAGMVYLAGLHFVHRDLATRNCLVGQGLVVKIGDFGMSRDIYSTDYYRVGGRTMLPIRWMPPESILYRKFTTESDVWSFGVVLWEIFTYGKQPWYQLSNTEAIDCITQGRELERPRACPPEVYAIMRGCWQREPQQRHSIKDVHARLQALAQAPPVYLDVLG
TRKB, sequence (Q16620 32-822): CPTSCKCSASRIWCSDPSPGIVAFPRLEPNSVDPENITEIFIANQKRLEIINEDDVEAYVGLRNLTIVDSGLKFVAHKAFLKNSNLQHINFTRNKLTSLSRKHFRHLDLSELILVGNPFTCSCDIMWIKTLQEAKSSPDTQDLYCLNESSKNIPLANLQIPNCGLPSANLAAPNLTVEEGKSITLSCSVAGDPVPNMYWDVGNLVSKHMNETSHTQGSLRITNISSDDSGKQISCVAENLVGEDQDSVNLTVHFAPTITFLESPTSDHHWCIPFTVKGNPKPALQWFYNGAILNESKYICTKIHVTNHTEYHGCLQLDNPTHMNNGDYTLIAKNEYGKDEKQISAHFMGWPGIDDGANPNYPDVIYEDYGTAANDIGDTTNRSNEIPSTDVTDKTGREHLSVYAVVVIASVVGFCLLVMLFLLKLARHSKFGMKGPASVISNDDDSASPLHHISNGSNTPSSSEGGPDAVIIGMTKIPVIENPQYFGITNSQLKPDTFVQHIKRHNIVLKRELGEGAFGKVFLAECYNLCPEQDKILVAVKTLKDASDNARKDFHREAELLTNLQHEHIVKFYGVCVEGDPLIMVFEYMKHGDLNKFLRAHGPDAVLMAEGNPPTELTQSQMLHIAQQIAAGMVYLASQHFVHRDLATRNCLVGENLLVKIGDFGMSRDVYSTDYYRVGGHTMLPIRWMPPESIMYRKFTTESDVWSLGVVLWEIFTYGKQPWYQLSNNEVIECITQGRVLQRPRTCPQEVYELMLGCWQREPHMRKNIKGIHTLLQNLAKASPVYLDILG
TRKC, sequence (Q16288 32-839): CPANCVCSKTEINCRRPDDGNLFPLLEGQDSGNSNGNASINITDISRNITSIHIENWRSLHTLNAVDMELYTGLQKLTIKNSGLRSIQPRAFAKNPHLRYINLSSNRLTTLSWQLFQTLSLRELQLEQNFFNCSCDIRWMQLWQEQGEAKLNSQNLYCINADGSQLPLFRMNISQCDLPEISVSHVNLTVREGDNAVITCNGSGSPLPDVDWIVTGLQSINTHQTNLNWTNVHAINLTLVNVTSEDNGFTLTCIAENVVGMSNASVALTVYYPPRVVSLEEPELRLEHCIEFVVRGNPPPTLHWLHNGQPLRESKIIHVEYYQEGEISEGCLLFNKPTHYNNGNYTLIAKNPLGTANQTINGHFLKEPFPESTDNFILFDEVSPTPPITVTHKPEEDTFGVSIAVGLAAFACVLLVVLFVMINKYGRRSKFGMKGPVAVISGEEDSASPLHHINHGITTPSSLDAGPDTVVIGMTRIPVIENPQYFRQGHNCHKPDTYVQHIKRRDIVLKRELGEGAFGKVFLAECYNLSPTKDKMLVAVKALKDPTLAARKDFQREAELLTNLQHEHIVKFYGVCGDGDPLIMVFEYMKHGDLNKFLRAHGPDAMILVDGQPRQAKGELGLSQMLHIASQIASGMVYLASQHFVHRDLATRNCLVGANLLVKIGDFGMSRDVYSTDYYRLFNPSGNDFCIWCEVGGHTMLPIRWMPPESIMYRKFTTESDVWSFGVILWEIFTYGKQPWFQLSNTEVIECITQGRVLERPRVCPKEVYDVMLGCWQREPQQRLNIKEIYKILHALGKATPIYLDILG

Regarding `C[C@@H]1C[C@H]2[C@@H]3CCC4=CC(=O)C=C[C@]4(C)[C@@]3(F)[C@@H](O)C[C@]2(C)[C@@]1(O)C(=O)CO` [dexamethasone, reference compound], in assay [1], the “Bronchoalveolar lavage fluid IL-5 expression level” value is listed as “significantly reduced the expression of IL-5”, the “Inflammatory cell count in bronchoalveolar lavage fluid” value is “significantly reduced the Inflammatory Cell Count”, the “Lung tissue inflammatory cell infiltration (HE pathology)” value is recorded as “significantly reduced the lung tissue inflammatory cell infiltration” and the “Serum IgE expression level” value is “significantly reduced the expression of IgE”.

Broadly, the IC50 is the concentration at which inhibition is half-maximal. With `CCOC(=O)N1Cc2nc(-c3n[nH]c4cc(-c5cc(F)c(O)cc5CC)ccc34)[nH]c2C1` [MDI-253, Ethyl 2-(6-(2-ethyl-5-fluoro-4-hydroxyphenyl)-1H-indazol-3-yl)-4,6-dihydropyrrolo[3,4-d]imidazol-5(1H)-carboxylate], the IC50 in assay [2] (read-out: TRKA IC50, ATP 5 μM) turned out to be 11.4 nM; in assay [3] (read-out: TRKB IC50, ATP 5 μM), 98.8 nM; in assay [4] (read-out: TRKC IC50, ATP 5 μM), 13.1 nM.

For the compound `CCc1cc(O)c(F)cc1-c1ccc2c(-c3nc4c([nH]3)CN(C(=O)N3CCOCC3)C4)n[nH]c2c1` [MDI-234, (2-(6-(2-ethyl-5-fluoro-4-hydroxyphenyl)-1H-indazol-3-yl)-4,6-dihydropyrrolo[3,4-d]imidazol-5-(1H)-yl)(morpholino)ketone], the results for the IC50 in assay [2], in assay [3] and in assay [4] were 1.07 nM, 1.27 nM and 0.65 nM, respectively.

For `C=C1/C(=C\C=C2/CCC[C@]3(C)[C@@H]([C@H](C)CCCC(C)(C)O)CC[C@@H]23)C[C@@H](O)C[C@@H]1O` [Calcitriol], the “Clinical Score (mean ± standard error)” value was found to be 0.0 ± 0.00 in assay [5] (Day 0); 0.2 ± 0.13 in assay [5] (Day 1); 1.2 ± 0.13 in assay [5] (Day 2); 3.1 ± 0.28 in assay [5] (Day 3); 4.3 ± 0.26 in assay [5] (Day 4); 2.9 ± 0.18 in assay [5] (Day 5). In addition, the entries for the “Clinical Score (mean ± standard error)” value in assay [5] (Day 6) and in assay [5] (Day 7) were 2.5 ± 0.17 and 2.0 ± 0.00, respectively. The “Skin Thickness Score (mean ± standard error)” value came out at 0.0 ± 0.00 in assay [5] (Day 0); 0.0 ± 0.00 in assay [5] (Day 1); 0.0 ± 0.00 in assay [5] (Day 2); 0.7 ± 0.15 in assay [5] (Day 3); 1.2 ± 0.20 in assay [5] (Day 4); 0.8 ± 0.20 in assay [5] (Day 5). Moreover, the results for the “Skin Thickness Score (mean ± standard error)” value in assay [5] (Day 6) and in assay [5] (Day 7) were 0.5 ± 0.17 and 0.0 ± 0.00, respectively. Also, the “Inhibition percentage of skin thickness score AUC relative to vehicle control group” value in assay [5] (calcitriol 75 mg/mice QD) was found to be 64.2%. Besides, the Skin histopathology entry in assay [5] (calcitriol 75 mg/mice QD) is “a trend of mitigation”.

Regarding `CCc1cc(O)c(F)cc1-c1ccc2c(-c3nc4c([nH]3)CN(C(=O)N3CCN(CC)CC3)C4)n[nH]c2c1` [MDI-236, (2-(6-(2-ethyl-5-fluoro-4-hydroxyphenyl)-1H-indazol-3-yl)-4,6-dihydropyrrolo[3,4-d]imidazol-5-(1H)-yl)(4-ethylpiperazin-1-yl)ketone], the IC50 in assay [2] was 0.23 nM; in assay [3], 1.06 nM; in assay [4], 0.2 nM.

As for `CCc1cc(O)c(F)cc1-c1ccc2c(-c3nc4c([nH]3)CN(C(=O)NCCO)C4)n[nH]c2c1` [MDI-248, 2-(6-(2-ethyl-5-fluoro-4-hydroxyphenyl)-1H-indazol-3-yl)-N-(2-hydroxylethyl)-4,6-dihydropyrrolo[3,4-d]imidazol-5(1H)-carboxamide], the IC50 in assay [2] (read-out: TRKA IC50, ATP 5 μM) turned out to be 12 nM; in assay [3] (read-out: TRKB IC50, ATP 5 μM) it was 3.58 nM; in assay [4] (read-out: TRKC IC50, ATP 5 μM), 3.77 nM.

Consider `CCc1cc(O)c(F)cc1-c1ccc2c(-c3nc4c([nH]3)CN(C(=O)N(C)C)C4)n[nH]c2c1` [MDI-257, 2-(6-(2-ethyl-5-fluoro-4-hydroxyphenyl)-1H-indazol-3-yl)-N,N-dimethyl-4,6-dihydropyrrolo[3,4-d]imidazol-5(1H)-carboxamide], for which the 50% inhibitory concentration (IC50) was found to be 2.93 nM in assay [3] (read-out: TRKB IC50, ATP 5 μM) and 0.72 nM in assay [4] (read-out: TRKC IC50, ATP 5 μM).

As to `CCc1cc(O)c(F)cc1-c1ccc2c(-c3nc4c([nH]3)CN(C(=O)N3CCCC3)C4)n[nH]c2c1` [MDI-231, (2-(6-(2-ethyl-5-fluoro-4-hydroxyphenyl)-1H-indazol-3-yl)-4,6-dihydropyrrolo[3,4-d]imidazol-5-(1H)-yl)(pyrrolidin-1-yl)ketone], the IC50 in assay [2] was found to be 2.82 nM; in assay [3], 5.86 nM; in assay [4] it was 1.49 nM.

As for `CCC[C@@H]1C[C@@H](C(=O)N[C@@H]([C@H]2O[C@H](SC)[C@H](O)[C@@H](O)[C@H]2O)[C@H](C)Cl)N(C)C1` [clindamycin, reference compound], the Hair follicle area result in assay [6] is listed as “not improved”. In assay [6] (2 weeks), the Rabbit ear weight entry was “did not reduce ear weight”.

`CCc1cc(O)c(F)cc1-c1ccc2c(-c3nc4c([nH]3)CN(C(=O)N3CCCCC3)C4)n[nH]c2c1` [MDI-233]: the IC50 stood at 9.01 nM in assay [2], 30.4 nM in assay [3] and 6.32 nM in assay [4].

For the compound `CCc1cc(O)c(F)cc1-c1ccc2c(-c3nc4c([nH]3)CN(S(=O)(=O)C3CC3)C4)n[nH]c2c1` [MDI-218, 4-(3-(5-(cyclopropanesulfonyl)-1,4,5,6-tetrahydropyrrolo[3,4-d]imidazol-2-yl)-1H-indazol-6-yl)-5-ethyl-2-fluorophenol], the IC50 in assay [2] (read-out: TRKA IC50, ATP 5 μM) was 9.97 nM; in assay [3] (read-out: TRKB IC50, ATP 5 μM), 32.3 nM; in assay [4] (read-out: TRKC IC50, ATP 5 μM), 5.1 nM.
